Results from patent EP2292237A1, “Sigma ligands for the prevention or treatment of pain induced by chemotherapy” (Laboratorios del. Dr. Esteve, S.A., priority 2009, dated 2011).
“Also recorded” adds a separate entry of the source. Where two headings read alike, the source gives them in different places.

Assays:
CD-1 mice [1] = test: Acetone test: expression of paclitaxel-induced cold allodynia, single s.c. injection on day 10; type: in vivo; settings: for expression of cold allodynia induced by paclitaxel: acute treatment 32-64 mg/kg s.c. on day 10 in mice pretreated with paclitaxel; for response to acetone of control (paclitaxel-vehicle treated) animals: acute treatment 32 or 64 mg/kg s.c. on day 10; for duration of hind paw licking/biting (acetone test) versus saline: single s.c. injection 64 mg/kg in mice pretreated with paclitaxel-vehicle (Figs. 7 and 8)
Procedure: Experiments were performed in CD-1 mice (Charles River, U.S.A.) with at least n = 10/experimental group. Mice weighing 25-30 g were used. The animals were housed in colony cages with free access to food and water prior to the experiments. They were maintained in temperature- and light-controlled rooms (22 ± 1 °C, lights on at 08.00 h and off at 20.00 h, air replacement every 20 min). Testing took place during the light phase (from 9.00 h to 15.00 h).
Therefore, the cumulative dose was 10 mg/kg per mouse.
Compounds 1a and 1b were dissolved in normal saline just before administration and applied at doses of 32 or 64 mg/kg subcutaneously.
The response of the animals to the different nociceptive stimuli was tested subsequently during 2-4 weeks, depending on the test (see below), without any additional treatment. Each animal was tested only in one nociceptive model. […] Each animal received only one dose of compound 1 a or 1b and was tested in only one nociceptive model.
Procedure for assessment of cold allodynia. Cold allodynia was tested as previously described by Smith et al. in Life Sci., 2004, 74(21), 2593-604, by gently touching the plantar skin of the hind paws with an acetone bubble formed with a syringe connected to a thin polyethylene tube. The mice were housed and habituated for 30 min in transparent plastic boxes (7 x 7 x 13 cm) with a floor made of wire mesh. After the adaptation period, acetone was applied alternately three times to each paw at intervals of 30 s, and the duration and frequency of licking or biting were recorded. A small mirror was placed behind the chambers to allow clear observation of the paws. The time spent licking or biting the paw was recorded by a stopwatch and represented as the cumulative time of licking/biting in the six measurements. Since licking persisting more than 10 s in the experiments was very unusual, a cut-off time of 10 s was used for each trial. […]
On that day, duration of hind paw licking/biting was recorded immediately before (time 0) and at several times (60, 120 and 180 min) after the injection of compound 1 a, compound 1 b or saline.
On that day, duration of hind paw licking/biting was recorded immediately before (time 0) and at several times (60, 120 and 180 min) after the injection of compound 1a, compound 1b or saline.

CD-1 mice [2] = test: Acetone test: development of paclitaxel-induced cold allodynia, co-administration with paclitaxel or paclitaxel vehicle; type: in vivo; settings: for duration of acetone-induced paw licking/biting: 64 mg/kg s.c. 30 min before each i.p. paclitaxel dose (2 mg/kg), versus paclitaxel + saline; for duration of acetone-induced paw licking/biting / days with statistically significant differences in duration of acetone-induced licking/biting versus paclitaxel + saline: days 1 to 5; for days with statistically significant differences in duration of acetone-induced licking/biting versus paclitaxel + saline: 64 mg/kg s.c. 30 min before each i.p. paclitaxel dose, days after the first dose of paclitaxel; for response of the animals to acetone (duration of hind paw licking/biting): co-administration days 1 to 5 of paclitaxel-vehicle i.p. and compound 64 mg/kg s.c., versus paclitaxel-vehicle + saline, hydrochloride, 64 mg/kg; for development of cold allodynia induced by paclitaxel: co-administration of paclitaxel (2 mg/kg, i.p.) and compound (64 mg/kg, s.c.)
patients = settings: cited from earlier work

Row | SMILES | response to acetone of control (paclitaxel-vehicle treated) animals (CD-1 mice [1]) | duration of hind paw licking/biting (acetone test) versus saline (CD-1 mice [1]) | duration of acetone-induced paw licking/biting (CD-1 mice [2]) | days with statistically significant differences in duration of acetone-induced licking/biting versus paclitaxel + saline (CD-1 mice [2]) | response of the animals to acetone (duration of hind paw licking/biting) (CD-1 mice [2]) | development of cold allodynia induced by paclitaxel (CD-1 mice [2]) | other results
1 | CC(=O)O[C@H]1C(=O)[C@@]2(C)[C@H]([C@H](OC(=O)c3ccccc3)[C@]3(O)C[C@H](OC(=O)[C@H](O)[C@@H](NC(=O)c4ccccc4)c4ccccc4)C(C)=C1C3(C)C)[C@]1(OC(C)=O)CO[C@@H]1C[C@@H]2O [paclitaxel, Paclitaxel, reference compound] | – | – | – | – | – | – | control animals treated with paclitaxel that did not show cold allodynia (CD-1 mice [1]; 'non-responders': less than 2 s licking/biting on days 7 and 10 after paclitaxel): Around 33%; cold allodynia (increase in the duration of acetone-induced paw licking/biting) (CD-1 mice [1]; paclitaxel i.p. once daily days 1 to 5, evaluated 10 days after the first dose): developed cold allodynia; duration of paw licking/biting in the acetone test (CD-1 mice [2]; paclitaxel (i.p., 2 mg/kg) and saline (s.c.) co-administered days 1 to 5, began on day 7, maximum on day 14): significant increase; progressing to dose-limiting neurotoxicity in % of patients (patients; paclitaxel dose 135 mg/m^2): 0%; progressing to dose-limiting neurotoxicity in % of patients (patients; paclitaxel dose 175 mg/m^2): 21%; progressing to dose-limiting neurotoxicity in % of patients (patients; paclitaxel dose 250-300 mg/m^2): 71%
2 | Cl.c1ccc(-n2ncc3c2CCC[C@H]3CCN2CCOCC2)cc1 [compound 1a, (S)-4,5,6,7-tetrahydro-4-(2-(morpholin-4-yl)ethyl)-1-phenyl-1H-indazole hydrochloride] | did not affect | No statistically significant differences | reduced | from day 7 to day 21 | did not significantly modify; also recorded: No statistically significant differences | inhibited | times at which the effect was statistically significant in comparison with the saline-treated group (CD-1 mice [1]; acute treatment 32-64 mg/kg s.c. on day 10, time after administration of the drug): at all times evaluated from 60 to 180 min; expression of cold allodynia induced by paclitaxel (CD-1 mice [1]; hydrochloride): dose-dependently inhibited
3 | Cl.c1ccc(-n2ncc3c2CCC[C@@H]3CCN2CCOCC2)cc1 [compound 1b, (R)-4,5,6,7-tetrahydro-4-(2-(morpholin-4-yl)ethyl)-1-phenyl-1H-indazole hydrochloride] | did not affect | No statistically significant differences | reduced | at days 7, 14 and 21 | did not significantly modify; also recorded: No statistically significant differences | inhibited | expression of cold allodynia induced by paclitaxel (CD-1 mice [1]): inhibited
4 | O=C(O)C(=O)O.c1ccc(-n2ncc3c2CCCC3CCN2CCOCC2)cc1 (stereo not shown) [compound 2, 4,5,6,7-tetrahydro-4-(2-(morpholin-4-yl)ethyl)-1-phenyl-1H-indazole oxalate] | – | – | – | – | – | – | duration of acetone-induced licking/biting (CD-1 mice [1]; acute injection 32-64 mg/kg s.c., 10 days after the first dose of paclitaxel): dose-dependently reduced
